Results: patent publication US8361971B2, “Tablet formulation of ezatiostat” (Telik, Inc., priority 2010, dated 2013)

Columns and labels:
Format in all cases: physicochemical
[1] = Tablet dissolution (Q at 45 min); conditions: tablets, hydrochloride
From the text: Without being bound by theory, a higher dissolution rate relates to a higher amount of the active agent in the gastric fluid, which in turn relates to higher bioavailability of the active agent. A high bioavailability is desired, for example and without limitation, for reducing inter patient variability of drug exposure for a orally administered agent such as ezatiostat hydrochloride. […] The aqueous solubility can be measured in a variety of aqueous solvents, including without limitation, water, 0.9% aqueous NaCl, 5% dextrose for injection, phosphate buffered saline, and generally aqueous solutions having a pH of less than about 5. Such solvents may include suitable buffers and other salts. […]
(§1) Tablets of ansolvate form D, were packaged with and without desiccant (Sorb-It Cannister, 1 gram). Fifty tablets were packaged in a round, white 1500 mL bottle with a screw cap over an induction seal. Impurities were assayed by HPLC. When stored at 25° C./60% RH with desiccant for 3 months, no increase in total impurities was observed. When stored at 40° C./75% RH with desiccant for 3 months, total impurities increased only by 0.3%. When stored at 40° C./75% RH without desiccant for 3 months, total impurities still increased by 1.1%. As tabulated below, the presence of desiccant appears to further increase the stability of the ansolvate form D. Even though the dissolution rate of tablets containing polymorph D from one batch was below specification (<70%) at an initial test as well as after 3 months at 25° C./60% RH with desiccant, the subsequent batches met the required specification.

[2] = X-ray diffraction, polymorphic form in tablets; conditions: hydrochloride; for X-ray Diffraction: tablets
Description: X-ray powder diffraction (XRPD) analyses were performed on a Shimadzu XRD-6000 X-ray powder diffractometer using Cu Kα radiation from a long fine focus X-ray tube, operated at 40 kV, 40 mA. The divergence and scattering slits were set at 1° and the receiving slit was set at 0.15 mm. Diffracted radiation was detected by a NaI scintillation detector. A θ-2θ continuous scan at 3°/min (0.4 sec/0.02° step) from 2.5°-40° 2θ was used. A silicon standard was analyzed to check alignment of the instrument. Data were collected and analyzed using XRD-6000 v.4.1 software.
Stress experiments: solids were stressed under different temperature and/or relative humidity (RH) environments for a measured time period. Specific RH values were achieved by placing the sample inside sealed chambers containing saturated salt solutions. Samples were analyzed by XRPD immediately after removal from the stress environment.
As described above, form E converts to form B simply during tableting.
as §1

[3] = Assay and impurities by HPLC of tablets on storage; set-up: key to Individual Impurities RRT = 0.74 / TLK 236 RRT = 0.88 / Individual Impurities RRT = 0.96 / Total impurities: impurity content in %; conditions: 6 Month at 40° C./75% RH without desiccant, hydrochloride
[4] = Water content of tablets on storage; conditions: hydrochloride
Description: Karl Fischer analyses for water determination were performed on a Mettler Toledo DL39 Karl Fischer titrator. About 10-15 mg of sample was placed in the KF titration vessel containing approximately 100 mL of Hydranal®—Coulomat AD reagent and mixed for 60 seconds to ensure dissolution. The dissolved sample was then titrated by means of a generator electrode which produces iodine by electrochemical oxidation. […]
as §1

[5] = Assay and impurities by HPLC of tablets on storage; set-up: key to Individual Impurities RRT = 0.74 / Individual Impurities RRT = 0.83 / TLK 236 RRT = 0.88 / Individual Impurities RRT = 0.94 / Individual Impurities RRT = 0.96 / Total impurities / Individual Impurities RRT = 0.80 / Individual Impurities RRT = 0.81 / Individual Impurities RRT = 0.86 / Individual Impurities RRT = 0.99: impurity content in %
[6] = Description (appearance) of tablets on storage
Description: as §1

[7] = 3 Month at 40° C./75% RH without desiccant
[8] = 6 Month at 40° C./75% RH without desiccant
[9] = 3 Month at 40° C./75% RH without desiccant, hydrochloride
[10] = 6 Month at 40° C./75% RH without desiccant, hydrochloride

CCOC(=O)[C@@H](N)CCC(=O)N[C@@H](CSCc1ccccc1)C(=O)N[C@@H](C(=O)OCC)c1ccccc1.Cl [Polymorph Form E, ezatiostat hydrochloride]
Dissolution, Mean at 45 min [1, 7]: Mean = 33 % of label claim
Dissolution, Mean at 45 min [1, 8]: Mean = 19 % of label claim
Dissolution, Mean at 45 min ([1]; Initial): Mean = 46 % of label claim
polymorphic conversion on storage ([2]; 40° C. and 75% RH without a desiccant, form D 6 months, form E 3 months, listed as solvate form E): transforms into a mixture of form B and the ansolvate form D within 3 months
polymorphic conversion during tablet manufacture ([2]; during tablet manufacture, listed as solvate form E): transforms almost entirely to form B crystals merely during tablet manufacture
X-ray Diffraction [2, 7]: Polymorph B
X-ray Diffraction [2, 8]: Polymorph B
X-ray Diffraction ([2]; Initial): Polymorph B
Assay (HPLC) [3]: 84.6 % Label Claim
Individual Impurities RRT = 0.59/0.62 [3]: 0.15
Individual Impurities RRT = 0.74 [3]: 0.51
Individual Impurities RRT = 0.96 [3]: 0.24
TLK 236 RRT = 0.88 [3]: 4.66
Total impurities [3]: 6.3
Water Content [4, 7]: 2.3%
Water Content [4, 8]: 2.3%
Water Content ([4]; Initial): 3.5%
Individual Impurities RRT = 0.59/0.62 [5, 7]: 0.07
Individual Impurities RRT = 0.86 [5, 7]: 0.06
Assay (HPLC) [5, 9]: 90.3 % Label Claim
Individual Impurities RRT = 0.74 [5, 9]: 0.42
Individual Impurities RRT = 0.80 [5, 9]: 0.16
Individual Impurities RRT = 0.81 [5, 9]: 0.14
Individual Impurities RRT = 0.83 [5, 9]: 0.31
Individual Impurities RRT = 0.94 [5, 9]: 0.08
Individual Impurities RRT = 0.96 [5, 9]: 0.19
Individual Impurities RRT = 0.99 [5, 9]: 0.20
TLK 236 RRT = 0.88 [5, 9]: 3.45
Total impurities [5, 9]: 5.1
Individual Impurities RRT = 0.80 [5, 10]: 0.41
Individual Impurities RRT = 0.81 [5, 10]: 0.17
Individual Impurities RRT = 0.83 [5, 10]: 0.16
Individual Impurities RRT = 0.99 ([5]; Initial): 0.12
Assay (HPLC) ([5]; Initial, hydrochloride): 93.7 % Label Claim
Individual Impurities RRT = 0.74 ([5]; Initial, hydrochloride): 0.38
Individual Impurities RRT = 0.83 ([5]; Initial, hydrochloride): 0.34
Individual Impurities RRT = 0.96 ([5]; Initial, hydrochloride): 0.20
TLK 236 RRT = 0.88 ([5]; Initial, hydrochloride): 0.42
Total impurities ([5]; Initial, hydrochloride): 1.5
Description [6, 7]: Off-white
Description [6, 10]: Brown round
Description ([6]; Initial): White round
